Experimental data taken from article PMC12212627, “Machine Learning-Based Virtual Screening of Antibacterial Agents against Methicillin-Susceptible and Resistant Staphylococcus aureus” (Journal of Chemical Information and Modeling, 2024).

Assays:
[1] = Cytotoxicity, colorimetric MTT assay; type: cell-based; settings: African green monkey, Vero (ATCC CCL-81) cells, 72 h incubation
Protocol: As for the cytotoxic concentration of 50% (CC50) determination, the Vero (ATCC CCL-81) cell line was cultured in Eagle’s Minimum Essential Medium (MEM) (Cultilab, Brazil). The medium was supplemented with 5% fetal bovine serum (FBS) (Cultilab, Brazil), in addition to 100 IU/mL penicillin (Cellofarm, Brazil), 100 μg/mL streptomycin (Merck, Germany), and 0.25 μg/mL amphotericin B (Cultilab, Brazil). Cells were seeded in 96-well microplates (4.0 × 10^4 cells per well) and incubated at 37 °C and 5% CO2 atmosphere. After 24 h of incubation, 200 μL of fresh medium containing a serial dilution of the compounds (100–1.56 μM) was added to the plates. Serial dilutions of DMSO were used as vehicle controls. After 72 h of incubation under the same conditions, 100 μL of 3-(4,5-dimethylthiazol-2-yl)–2,5-diphenyltetrazolium bromide (MTT) in MEM (0.5 mg/mL) was added to each well. After 3 h of incubation with MTT (ThermoFischer Scientific), the medium was removed, and 100 μL of DMSO was added to each well to solubilize the formazan crystals. After a brief incubation under shaking for 20 min, the absorbance at 570 nm of each well was read using a spectrophotometer (VersaMax, Molecular Devices). The percentages of inhibition of cell viability were calculated by using the vehicle control. The cytotoxic concentration of 50% (CC50) is defined as the lowest concentration of a given compound that can reduce the viability of cultured cells by 50%. Posteriorly, the selectivity index (SI), that is, the ratio between the CC50 and MIC values of each active compound, was calculated. All conditions were tested in triplicate and at least two independent assays. The overall procedures applied in this work are illustrated in Figure .

[2] = test system: clinical strain of MRSA n° 5749; experiment: Broth microdilution (CLSI): screening at 100 μM and MIC, MRSA clinical strain 5749; type: cell-based, Staphylococcus aureus; settings: for Percentage of growth inhibition MRSA (5749): at 100 uM, Table S4
Protocol: (§1) E. coli (ATCC n° […]) – a TEM-1 β-lactamase producing strain, S. aureus (ATCC n° 29213) – herein referred to as MSSA, MRSA (ATCC n° 43300), and two clinical strains of MRSA (n° 5749 and 6154) were used in the biological assays. The antibacterial activity and minimal inhibitory concentration (MIC) of the screened compounds were evaluated with the broth microdilution method in 96-well microplates, according to the Clinical and Laboratory Standards Institute (CLSI) protocol. Initially, compounds were evaluated in a screening assay to identify promising hits. The compounds were dissolved in dimethyl sulfoxide (DMSO) and then diluted in Mueller Hinton broth (MHB; Oxoid, Thermo Scientific, U.K.) to a concentration of 200 μM. After the addition of 100 μL to each well, the same volume of bacterial suspension containing 10^5 CFU/mL was added to each of the previous solutions, resulting in a final compound concentration of 100 μM. A viability control (bacterial suspension only), inhibition controls (MHB containing five times the MIC of penicillin G for MSSA, vancomycin for MRSA strains, and streptomycin for E. coli), a sterility control (medium only), and a vehicle control (DMSO 2% v/v) were included in each assay microplate. After 24 h of incubation at 37 °C, the microplates were visually inspected for inhibition of bacterial growth, and the absorbance at 600 nm of each well was read using a microplate reader spectrophotometer (VersaMax, Molecular Devices, CA). The percentage of growth inhibition was calculated as the percentage of growth reduction compared with the vehicle control. Wells showing no visual bacterial growth (no turbidity) were considered hits. The MIC of the promising compounds in the initial screening were tested as previously described, with a serial dilution of each compound (100–1.56 μM). All conditions were tested in triplicate from at least three independent assays.

[3] = test system: S. aureus (ATCC n° 29213), MSSA; experiment: Broth microdilution (CLSI): screening at 100 μM and MIC, MSSA; type: cell-based, Staphylococcus aureus; settings: for Percentage of growth inhibition MSSA (ATCC 29123): at 100 uM, Table S4
Protocol: as §1

[4] = test system: E. coli (ATCC 35218), TEM-1 β-lactamase producing strain; experiment: Broth microdilution (CLSI): screening at 100 μM and MIC, E. coli; type: cell-based; settings: for Percentage of growth inhibition E. coli (ATCC 35218): at 100 uM, Table S4
Protocol: as §1

[5] = test system: MRSA (ATCC n° 43300); experiment: Broth microdilution (CLSI): screening at 100 μM and MIC, MRSA reference strain; type: cell-based, Staphylococcus aureus; settings: for Percentage of growth inhibition MRSA (ATCC 43300): at 100 uM, Table S4
Protocol: as §1

[6] = test system: clinical strain of MRSA n° 6154; experiment: Broth microdilution (CLSI): screening at 100 μM and MIC, MRSA clinical strain 6154; type: cell-based, Staphylococcus aureus; settings: for Percentage of growth inhibition MRSA (6154): at 100 uM, Table S4
Protocol: as §1

[7] = test system: MSSA and MRSA strains; experiment: Broth microdilution, results summed up over MSSA and MRSA strains; type: cell-based, Staphylococcus aureus; settings: tested compounds of Supporting Table S4, 100 μM
Protocol: as §1

[8] = broth microdilution, 24 h, 37 °C

SMILES | Percentage of growth inhibition MRSA (5749) [2] [%] | Percentage of growth inhibition MSSA (ATCC 29123) [3] [%] | Percentage of growth inhibition E. coli (ATCC 35218) [4] [%] | Percentage of growth inhibition MRSA (ATCC 43300) [5] [%] | Percentage of growth inhibition MRSA (6154) [6] [%] | also measured
Cc1ccc(OCC(N)COc2ccc(C)cc2)cc1 [Compound 4, 1,3-bis(4-methylphenoxy)propano-2-aminium chloride] |  |  |  |  |  | CC50 at 72 h [1]: 19 ± 6.1 µM; MIC, MRSA (5749) [2, 8]: −; MIC ([3]; Staphylococcus aureus, ATCC 29123 / MSSA, broth microdilution, 24 h, 37 °C): 50 µM; % of growth inhibition, MSSA (ATCC 29123) ([3]; at the concentration (MIC)): 97.80%; inhibition at 100 µM ([4]; Escherichia coli, ATCC35218, at 100 μM, read-out: inhibition in the initial screening, E. coli): 85.5%; MIC ([4]; Escherichia coli, ATCC35218, broth microdilution, 24 h, 37 °C): 100 µM; % of growth inhibition, E. coli (ATCC 35218) ([4]; at the concentration (MIC)): 87.0%; MIC ([5]; Staphylococcus aureus, ATCC 43300 / MRSA, broth microdilution, 24 h, 37 °C): 100 µM; % of growth inhibition, MRSA (ATCC 43300) ([5]; at the concentration given (MIC or 100 μM where MIC >100)): 90.38%; MIC, MRSA (6154) [6, 8]: −
O=C1C=C(OCc2cn(-c3ccccc3)nn2)C(=O)c2ccccc21 [S12] | 0 | 0 | 0 | 0 | 0 | antibacterial activity (in words) [7]: no antibacterial activity
CC1(C)OCC(CO)N1C(=O)OCc1ccccc1 (stereo not drawn) [S13] | 0 | 0 | 0 | 0 | 0 | 
O=C(C=Cc1ccccc1)NC(CO)COc1ccc([N+](=O)[O-])cc1 (stereo not drawn) [S14] | 0 | 0 | 0 | 0 | 0 | 
O=C(CCc1ccccc1)ON1C(=O)CCC1=O [S16] | 0 | 0 | 0 | 0 | 0 | 
OC(COc1cccc2ccccc12)COc1cccc2ccccc12 [S17] | 0 | 0 | 0 | 0 | 0 | 
N#Cc1ccccc1OCC(O)COc1ccccc1C#N [S18] | 0 | 0 | 0 | 0 | 0 | 
N#Cc1cccc(OCC(O)COc2cccc(C#N)c2)c1 [S19] | 0 | 0 | 0 | 0 | 0 | 
O=C1C(O)=C(Cc2cn(C3OC(CO)C(O)C(O)C3O)nn2)C(=O)c2ccccc21 (stereo not drawn) [S25] | 0 | 0 | 0 | 0 | 0 | 
O=C1C(O)=C(Cc2cn(C3OC(CO)C(O)C(O)C3O)nn2)C(=O)c2ccccc21 (stereo not drawn) [S26] | 0 | 0 | 0 | 0 | 0 | 
CC(=O)NC1C(O)C(O)C(CO)OC1n1cc(CC2=C(O)C(=O)c3ccccc3C2=O)nn1 (stereo not drawn) [S27] | 0 | 0 | 0 | 0 | 0 | 
CC(=O)OC1C(C)OC(n2cc(COC3=CC(=O)c4ccccc4C3=O)nn2)C(OC(C)=O)C1OC(C)=O (stereo not drawn) [S33] | 0 | 0 | 0 | 0 | 0 | antibacterial activity (in words) [7]: inactive
CC(C)=CCC1=C(NCC(=O)O)C(=O)c2ccccc2C1=O [S34] | 0 | 0 | 0 | 0 | 0 | 
C#CCOC1=C(CC=C(C)C)C(=O)c2ccccc2C1=O [S35] | 0 | 0 | 0 | 0 | 0 | 
O=C(NC(Cc1ccc(O)cc1)C(=O)O)OCc1ccccc1 (stereo not drawn) [S42] | 0 | 0 | 0 | 0 | 0 | 
NC(=O)CC(NC(=O)OCc1ccccc1)C(=O)O (stereo not drawn) [S43] | 0 | 0 | 0 | 0 | 0 | 
NCCNC(=O)c1cc2ccccc2[nH]1 [S45] | 0 | 0 | 0 | 0 | 0 | 
OCCNCc1cc2ccccc2[nH]1 [S46] | 0 | 0 | 0 | 0 | 0 | 
CCCNC(=O)c1cc2ccccc2[nH]1 [S47] | 0 | 0 | 0 | 0 | 0 | 
O=C(NCCO)c1cc2ccccc2[nH]1 [S48] | 0 | 0 | 0 | 0 | 0 | 
O=C(NCCCN1CCOCC1)c1cc2ccccc2[nH]1 [S49] | 0 | 0 | 0 | 0 | 0 | 
O=c1cc(-c2ccc(O)c(O)c2)oc2c(C3OC(CO)C(O)C(O)C3O)c(O)cc(O)c12 (stereo not drawn) [S54] | 0 | 0 | 0 | 0 | 0 | 
